Data published in patent US10626081B2, “Farnesoid X receptor agonists and uses thereof” (Metacrine, Inc., priority 2015, dated 2020).

Target: T1, FXR (Homo sapiens, UniProt Q96RI1)
T1 construct: expressed in transfected cells; host or cells: CV-1 cells
T1 sequence (Q96RI1 1-486): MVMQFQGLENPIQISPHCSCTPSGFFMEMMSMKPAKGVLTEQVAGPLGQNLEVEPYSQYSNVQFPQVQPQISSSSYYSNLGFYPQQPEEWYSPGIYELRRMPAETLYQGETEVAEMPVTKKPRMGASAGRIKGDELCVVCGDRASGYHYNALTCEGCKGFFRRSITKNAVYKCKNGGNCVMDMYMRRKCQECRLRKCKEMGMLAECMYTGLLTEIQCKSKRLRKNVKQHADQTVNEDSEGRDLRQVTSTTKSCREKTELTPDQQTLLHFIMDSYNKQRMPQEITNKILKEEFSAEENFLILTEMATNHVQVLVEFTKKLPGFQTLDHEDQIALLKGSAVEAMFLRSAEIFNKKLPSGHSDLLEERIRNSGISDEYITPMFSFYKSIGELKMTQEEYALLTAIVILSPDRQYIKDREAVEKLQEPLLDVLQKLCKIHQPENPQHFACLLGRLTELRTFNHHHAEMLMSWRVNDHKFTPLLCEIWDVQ
T1 sequence (P19793 1-462 partner): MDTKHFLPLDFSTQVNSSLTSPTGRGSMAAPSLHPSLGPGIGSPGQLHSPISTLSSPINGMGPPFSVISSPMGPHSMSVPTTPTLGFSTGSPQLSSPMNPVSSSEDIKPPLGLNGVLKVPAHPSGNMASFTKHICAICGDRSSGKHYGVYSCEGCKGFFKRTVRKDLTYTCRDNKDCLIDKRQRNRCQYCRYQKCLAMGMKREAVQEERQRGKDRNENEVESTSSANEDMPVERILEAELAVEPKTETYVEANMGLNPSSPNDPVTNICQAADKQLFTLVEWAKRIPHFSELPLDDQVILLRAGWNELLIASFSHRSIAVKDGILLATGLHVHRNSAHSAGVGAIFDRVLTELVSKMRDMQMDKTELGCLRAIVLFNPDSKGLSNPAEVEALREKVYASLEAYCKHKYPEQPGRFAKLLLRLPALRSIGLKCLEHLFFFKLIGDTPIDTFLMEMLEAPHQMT
Assay: In Vitro FXR Assay (TK): TK-ECRE-luc reporter in transfected CV-1 cells
Assay type: cell-based
Conditions: CV-1 cells transfected with hFXR, hRXR, 18 h incubation, luminescence
Method: Example B-2: In Vitro FXR Assay (TK)
CV-1 cells were seeded at a density of 2,000,000 cells in a T175 flask with DMEM+10% charcoal double-stripped FBS and incubated at 37° C. in 5% CO2 for 18 h (O/N).
After 18 h of incubation, the medium in the T175 flask was changed with fresh DMEM+10% charcoal super-stripped serum. In a polypropylene tube, 2500 μL OptiMEM (Life Technologies, Cat #31985-062) was combined with expression plasmids for hFXR, hRXR, TK-ECRE-luc and pCMX-YFP. The tube was then briefly vortexed and incubated at room temperature for 5 minutes. Transfection reagent (X-tremeGENE HP from Roche, Cat #06 366 236 001) was added to the OptiMEM/plasmid mixture vortexed and incubated at room temperature for 20 minutes. Following incubation, the transfection reagent/DNA mixture complex was added to cells in the T175 flask and the cells were incubated at 37° C. in 5% CO2 for 18 h (O/N).
Compounds were serially diluted in DMSO and added to transfected CV-1 cells. The cells were then incubated for 18 hrs. The next day cells were lysed and examined for luminescence.

Structure (SMILES)	EC50 [nM]
COC(=O)/C=C/c1cccc(N(Cc2ccc(-c3ccc(N(C)C)cc3)cc2)C(=O)c2ccc(O)cc2)c1 [13.21, (E)-Methyl 3-(3-(N-((4′-(dimethylamino)-[1,1′-biphenyl]-4-yl)methyl)-4-hydroxybenzamido)phenyl)acrylate]	≤ 1000
COC(=O)/C=C/c1cccc(N(Cc2ccc(-c3ccc(N(C)C)cc3)cc2)C(=O)c2ccc(OCCO)cc2)c1 [13.22, (E)-Methyl 3-(3-(N-((4′-(dimethylamino)-[1,1′-biphenyl]-4-yl)methyl)-4-(2-hydroxyethoxy)benzamido)phenyl)acrylate]	≤ 1000
COC(=O)/C=C/c1cccc(N(Cc2ccc(-c3ccc(N(C)C)cc3)cc2)C(=O)C(C)(C)CO)c1 [13.23, (E)-Methyl 3-(3-(N-((4′-(dimethylamino)-[1,1′-biphenyl]-4-yl)methyl)-3-hydroxy-2,2-dimethylpropanamido)phenyl)acrylate]	1000 to 10000
COC(=O)/C=C/c1cccc(N(Cc2ccc(-c3ccc(N(C)C)cc3)cc2)C(=O)C(C)(C)CCl)c1 [13.24, (E)-Methyl 3-(3-(3-chloro-N-((4′-(dimethylamino)-[1,1′-biphenyl]-4-yl)methyl)-2,2-dimethylpropanamido)phenyl)acrylate]	≤ 1000
COC(=O)/C=C/c1cccc(N(Cc2ccc(-c3ccc(N(C)C)cc3)cc2)C(=O)C2CCCCO2)c1 (stereo not shown) [17.1, (E)-Methyl 3-(3-(N-((4′-(dimethylamino)-[1,1′-biphenyl]-4-yl)methyl)tetrahydro-2H-pyran-2-carboxamido)phenyl)acrylate]	≤ 1000
COC(=O)/C=C/c1cccc(N(Cc2ccc(-c3ccc(N(C)C)cc3)cc2)C(=O)C2COCCO2)c1 (stereo not shown) [17.2, (E)-Methyl 3-(3-(N-((4′-(dimethylamino)-[1,1′-biphenyl]-4-yl)methyl)-1,4-dioxane-2-carboxamido)phenyl)acrylate]	1000 to 10000
COC(=O)/C=C/c1cccc(N(Cc2ccc(-c3ccc(N(C)C)cc3)cc2)C(=O)C2CCCOC2)c1 (stereo not shown) [17.3, (E)-Methyl 3-(3-(N-((4′-(dimethylamino)-[1,1′-biphenyl]-4-yl)methyl)tetrahydro-2H-pyran-3-carboxamido)phenyl)acrylate]	1000 to 10000
COC(=O)/C=C/c1cccc(N(Cc2ccc(-c3ccc(OC)c(C)c3)cc2)C(=O)c2ccncc2)c1 [62.1, (E)-Methyl 3-(3-(N-((4′-methoxy-3′-methyl-[1,1′-biphenyl]-4-yl)methyl)isonicotinamido)phenyl)acrylate]	1000 to 10000
COC(=O)/C=C/c1cccc(N(Cc2ccc(-c3cccc(C(=O)OC)c3)cc2)C(=O)C2CCCCC2)c1 [62.2, (E)-Methyl 4′-((N-(3-(3-methoxy-3-oxoprop-1-en-1-yl)phenyl)cyclohexanecarboxamido)methyl)-[1,1′-biphenyl]-3-carboxylate]	1000 to 10000
COC(=O)/C=C/c1cccc(N(Cc2ccc(-c3ccc(C(=O)OC)cc3)cc2)C(=O)C2CCCCC2)c1 [62.3, (E)-Methyl 4′-((N-(3-(3-methoxy-3-oxoprop-1-en-1-yl)phenyl)cyclohexanecarboxamido)methyl)-[1,1′-biphenyl]-4-carboxylate]	1000 to 10000
COC(=O)/C=C/c1cccc(N(Cc2ccc(-c3ccc(S(C)(=O)=O)cc3)cc2)C(=O)C2CCCCC2)c1 [62.4, (E)-Methyl 3-(3-(N-((4′-(methylsulfonyl)-[1,1′-biphenyl]-4-yl)methyl)cyclohexanecarboxamido)phenyl) acrylate]	1000 to 10000
COC(=O)/C=C/c1cccc(N(Cc2ccc(-c3ccc(OC)c(C)c3)cc2)C(=O)C2CCN(C(=O)OC(C)(C)C)CC2)c1 [62.5, (E)-tert-Butyl 4-(((4′-methoxy-3′-methyl-[1,1′-biphenyl]-4-yl)methyl)(3-(3-methoxy-3-oxoprop-1-en-1-yl)phenyl)carbamoyl)piperidine-1-carboxylate]	1000 to 10000
COC(=O)/C=C/c1cccc(N(Cc2ccc(-c3cccc(CO)c3)cc2)C(=O)C2CCCCC2)c1 [62.6, (E)-Methyl 3-(3-(N-((3′-(hydroxymethyl)-[1,1′-biphenyl]-4-yl)methyl)cyclohexanecarboxamido)phenyl) acrylate]	1000 to 10000
COC(=O)/C=C/c1cccc(N(Cc2ccc(-c3ccc(CO)cc3)cc2)C(=O)C2CCCCC2)c1 [62.7, (E)-Methyl 3-(3-(N-((4′-(hydroxymethyl)-[1,1′-biphenyl]-4-yl)methyl)cyclohexanecarboxamido)phenyl) acrylate]	> 10000
COC(=O)/C=C/c1cccc(N(Cc2ccc(-c3cccc(S(C)(=O)=O)c3)cc2)C(=O)C2CCCCC2)c1 [62.8, (E)-Methyl 3-(3-(N-((3′-(methylsulfonyl)-[1,1′-biphenyl]-4-yl)methyl)cyclohexanecarboxamido)phenyl) acrylate]	> 10000
COC(=O)/C=C/c1cccc(N(Cc2ccc(-c3ccc4c(c3)OCO4)cc2)C(=O)C2CCCCC2)c1 [62.9, (E)-Methyl 3-(3-(N-(4-(benzo[d][1,3]dioxol-5-yl)benzyl)cyclohexanecarboxamido)phenyl) acrylate]	≤ 1000
COC(=O)/C=C/c1cccc(N(Cc2ccc(-c3ccc(OC)c(Cl)c3)cc2)C(=O)C2CCCCC2)c1 [62.10, (E)-Methyl 3-(3-(N-((3′-chloro-4′-methoxy-[1,1′-biphenyl]-4-yl)methyl)cyclohexanecarboxamido)phenyl) acrylate]	≤ 1000
COC(=O)/C=C/c1cccc(N(Cc2ccc(-c3ccc(N(C)C)cc3)c(C#N)c2)C(=O)C2CCCCC2)c1 [62.11, (E)-Methyl 3-(3-(N-((2-cyano-4′-(dimethylamino)-[1,1′-biphenyl]-4-yl)methyl)cyclohexanecarboxamido)phenyl) acrylate]	≤ 1000
COC(=O)/C=C/c1cccc(N(Cc2ccc(-c3ccc(N(C)C)cc3)cc2C#N)C(=O)C2CCCCC2)c1 [62.12, (E)-Methyl 3-(3-(N-((3-cyano-4′-(dimethylamino)-[1,1′-biphenyl]-4-yl)methyl)cyclohexanecarboxamido)phenyl) acrylate]	1000 to 10000
CCc1cc(CN(C(=O)C2CCCCC2)c2cccc(/C=C/C(=O)OC)c2)ccc1-c1ccc(N(C)C)cc1 [62.13, (E)-Methyl 3-(3-(N-((4′-(dimethylamino)-2-ethyl-[1,1′-biphenyl]-4-yl)methyl)cyclohexanecarboxamido)phenyl) acrylate]	1000 to 10000
CCc1cc(-c2ccc(N(C)C)cc2)ccc1CN(C(=O)C1CCCCC1)c1cccc(/C=C/C(=O)OC)c1 [62.14, (E)-Methyl 3-(3-(N-((4′-(dimethylamino)-3-ethyl-[1,1′-biphenyl]-4-yl)methyl)cyclohexanecarboxamido)phenyl) acrylate]	≤ 1000
COC(=O)/C=C/c1cccc(N(Cc2ccc(-c3ccc(OC)c(C)c3)cc2)C(=O)C2CCNCC2)c1 [62.15, (E)-Methyl 3-(3-(N-((4′-methoxy-3′-methyl-[1,1′-biphenyl]-4-yl)methyl)piperidine-4-carboxamido)phenyl)acrylate]	> 10000
COC(=O)/C=C/c1cccc(N(Cc2ccc(-c3ccc(OC)c(C)c3)cc2)C(=O)C2CCN(C(C)=O)CC2)c1 [62.16, (E)-Methyl 3-(3-(1-acetyl-N-((4′-methoxy-3′-methyl-[1,1′-biphenyl]-4-yl)methyl)piperidine-4-carboxamido)phenyl)acrylate]	1000 to 10000
COC(=O)/C=C/c1cccc(N(Cc2ccc(-c3ccc(OC)c(C)c3)cc2)C(=O)C2CCN(S(C)(=O)=O)CC2)c1 [62.17, (E)-Methyl 3-(3-(N-((4′-methoxy-3′-methyl-[1,1′-biphenyl]-4-yl)methyl)-1-(methylsulfonyl)piperidine-4-carboxamido)phenyl)acrylate]	1000 to 10000
COC(=O)/C=C/c1cccc(N(Cc2ccc(-c3ccc4c(c3)nnn4C)cc2)C(=O)C2CCCCC2)c1 [75.1, (E)-Methyl 3-(3-(N-(4-(1-methyl-1H-benzo[d][1,2,3]triazol-5-yl)benzyl)cyclohexanecarboxamido)phenyl) acrylate]	1000 to 10000
